# Measured values published in patent US20090123925A1, “CANCER THERAPY PROGNOSIS AND TARGET” (priority 2005, published 2009).
# Where two headings read alike, the source gives them in different places. Where a SMILES comes first, the peptide text is derived from it. The star is where a group is joined. Cbz = O=C(OCc1ccccc1)*; CH2F = FC*
# Key:
# Assay type in all cases: cell-based, human
# A549 wt cells = details: wild-type or resistant A549 NSCLC cells; data not shown
# Procedure: The human NSCLC cell line A549 [from ATCC; CCL-185] was maintained in F12-K and RPMI 1640 (supplemented with 10% foetal bovine serum (FBS), 100 U/ml penicillin, and 100 μg/ml streptomycin at 37° C., 5% CO2) in an incubator.
# (§1) Cytotoxicity of each platinum drug in each cell line was determined by MTT (3-(4,5-dimethylthiazole-2-yl)-2,5-diphenyl tetrazolium bromide, Sigma) assay. Cells were seeded onto 96-well plates at a density of 2-3×10^3 cells per well and cultured for 24 hours. Then cells were incubated with relevant concentrations of carboplatin, cisplatin or oxaliplatin for 72 hours. After treatment, 30 μl of MTT (5 mg/ml) in PBS was incubated with cells in a 96-well plate for 4 h at 37° C. Subsequently, the medium containing MTT was removed, and 200 μl of DMSO was added to each well and shaken for 15 minutes. Spectrophotometric absorbance of each well was measured at 560 nm and 630 nm on a microplate reader (Bio-Rad, model 3550). GraphPad Prism 2.01 was used to calculate the IC50 of each platinum drug in different cell lines.
# CA-074 Methyl ester (Sigma) was used to inhibit cathepsin B and caspase inhibitor I: (Z-VAD (OMe)-FMK, Calbiochem, UK) to inhibit caspases. […]
# [1] = test system: carboplatin-resistant A549 cells (A549car15, A549car17.5); details: for Fold change of IC50 in resistant line vs. A549 parental line: A549car15 (exposed up to 15 μM carboplatin), MTT, 72 hours
# Excerpt: (§2) The A549 cisplatin-, carboplatin- and oxaliplatin-cells were derived from the A549WT cell lines, by maintaining the cells in increasing concentrations of the relevant drug. […] This generated cisplatin-(A549cis1, A549cis2.5, A549cis5, A549cis7.5 and A549cis10), carboplatin-(A549car1, A549car2.5, A549car5, A549car10, A549car15 and A549car17.5) and oxaliplatin-(A549oxa2.5, A549oxa3, A549ox3.5, A549ox5 and A549oxa7.5) resistant A549 cell lines. The cells were exposed to each drug concentration for at least a 4-week period and allowed to recover in drug-free medium for a minimum of 2 weeks, before culture in a higher concentration of drug.
# as §1
# (§3) CA-074 Methyl ester (Sigma) was used to inhibit cathepsin B and caspase inhibitor I: (Z-VAD (OMe)-FMK, Calbiochem, UK) to inhibit caspases. Cathepsin L and K selective inhibitors (Cathepsin L inhibitor IV: Z-FF-FMK and Cathepsin K inhibitor I: 1,3-Bis (N-carbobenzoyloxy-L-leucyl) amino acetone, respectively (Calbiochem, UK)) and non-selective broad range cathepsin inhibitor (E-64d; (2S, 3S)-trans-epoxysuccinyl-L-leucylamido-3-methylbutane ethyl ester (Sigma, UK) were used to inhibit cysteine proteases.
# [2] = test system: cisplatin-resistant A549 cells (A549cis7.5, A549cis10); details: for Fold change of IC50 in resistant line vs. A549 parental line: A549cis7.5 (exposed up to 7.5 μM cisplatin), MTT, 72 hours
# Excerpt: as §2, §1, §3
# [3] = test system: oxaliplatin-resistant A549 cells (A549ox3, A549ox7.5); details: MTT, 72 hours
# Excerpt: as §2, §1, §3
# [4] = A549ox7.5 (exposed up to 7.5 μM oxaliplatin)
SMILES,Effect of caspase inhibition on sensitivity to platinum drugs (A549 wt cells),Fold change of IC50 in resistant line vs. A549 parental line [1] [fold],"Level of resistance at higher drug concentration ([2]; A549 cells exposed to 10 μM cisplatin, compared with 7.5 μM)","Fold change of IC50 in resistant line vs. A549 parental line [3, 4] [fold]",Fold change of IC50 in resistant line vs. A549 parental line [2] [fold],Fold change of IC50 in resistant line vs. A549 parental line ([3]; A549 cells exposed up to 3 μM oxaliplatin) [fold],"Level of resistance at higher drug concentration ([1]; A549 cells exposed to 17.5 μM carboplatin, compared with 15 μM)"
"COC(=O)C[C@H](NC(=O)[C@H](C)NC(=O)[C@@H](NC(=O)OCc1ccccc1)C(C)C)C(=O)CF [caspase inhibitor I, Z-VAD (OMe)-FMK] (Cbz-Val-Ala-Asp(OMe)-CH2F)",did not alter,–,–,–,–,–,–
N.N.[Cl][Pt][Cl] [cisplatin],–,3.02,remained unchanged,1.8,–,–,–
O=C1[O][Pt]2([NH][C@@H]3CCCC[C@H]3[NH]2)[O]C1=O [oxaliplatin],–,0.47,–,5.3,0.54,3,–
N.N.O=C([O-])C1(C(=O)[O-])CCC1.[Pt+2] [carboplatin],–,–,–,1.5,3.4,–,remained unchanged
